Key:
[1] = test system: participants with migraine; assay: Office blood pressure in 12-week double blind randomized 3×3 factorial trial; format: in vivo, human
Protocol: (§1) There was a 4 week screening period and another 4-week post study drug observational period.
There was a 4-week screening period and another 4-week post study drug observational period.
(§2) Group 2 received the low-dose BP lowering combination and simvastatin (i.e., telmisartan 20 mg+amlodipine 2.5 mg+simvastatin). Group 3 received the low-dose BP lowering combination and placebo (i.e., telmisartan 20 mg+amlodipine 2.5 mg+placebo). […] Group 9 received double placebo.
Office BP was measured following the recommendations of the Australian National Heart Foundation. Participants were rested in the seated position for 5 minutes, an appropriate cuff size was selected and 3 measurements of BP were recorded using an Omron HEM907 monitor or equivalent validated automated digital BP monitor. Principles of automated office BP measurements were applied whereby the patient was left alone during BP recording.
(§3) All analyses of study outcomes were conducted according to the principle of intention-to-treat. The analyses of continuous outcomes such SBP and LDL-cholesterol at 12 weeks was performed using ANCOVA including the treatment arm and baseline values as a covariate. Additional analyses included interim measurements in a longitudinal model including treatment arm, visit, and treatment by visit interaction as well as the baseline measurement. Within-patient correlations were modelled using generalized estimating equations. A similar approach was applied to binary endpoints with log-binomial regression used in place of linear regression. There were also pre-defined subgroup analyses, baseline BP, baseline LDL, gender and age.

LDL = LDL laboratory test in the 3×3 factorial trial; format: in vivo, human; conditions: Week 12 v/s Baseline
Protocol: as §1, §2
Change in DBP and SBP • 2. Change in LDL Secondary Outcomes: • 1. Tolerability: • a. […] Difference between groups in participant withdrawals from treatment • 2. Safety: Percentage with any severe adverse event (SAE) • 3. Medication adherence: self-reported measures, pill counts BP Measurement:
Potassium (K+), sodium (Na+), serum creatinine and LDL were measured at screening and at the 12-week end of treatment follow-up visit.
as §3

[2] = Randomization (baseline, before treatment)
[3] = Week 16 (after 4-week post study drug period)

CCC(C)(C)C(=O)O[C@H]1C[C@@H](C)C=C2C=C[C@H](C)[C@H](CC[C@@H]3C[C@@H](O)CC(=O)O3)[C@H]21 [Simvastatin, simvastatin]
Diastolic Blood Pressure Mean (SD) [1, 2]: 9 82.7 (8.43) mmHg | Diastolic Blood Pressure Q1 [1, 2]: 76.0 mmHg | Diastolic Blood Pressure Q2 [1, 2]: 81.0 mmHg | Diastolic Blood Pressure Q3 [1, 2]: 89.0 mmHg | Diastolic Blood Pressure max [1, 2]: 96 mmHg | Diastolic Blood Pressure min [1, 2]: 72 mmHg | Systolic Blood Pressure Mean (SD) [1, 2]: 9 124.2 (13.17) mmHg | Systolic Blood Pressure Q1 [1, 2]: 114.7 mmHg | Systolic Blood Pressure Q2 [1, 2]: 123.0 mmHg | Systolic Blood Pressure Q3 [1, 2]: 132.7 mmHg | Systolic Blood Pressure max [1, 2]: 147 mmHg | Systolic Blood Pressure min [1, 2]: 107 mmHg | Diastolic Blood Pressure Mean (SD) ([1]; Week 4): 9 77.5 (6.98) mmHg | Diastolic Blood Pressure Q1 ([1]; Week 4): 74.0 mmHg | Diastolic Blood Pressure Q2 ([1]; Week 4): 77.7 mmHg | Diastolic Blood Pressure Q3 ([1]; Week 4): 81.3 mmHg | Diastolic Blood Pressure max ([1]; Week 4): 90 mmHg | Diastolic Blood Pressure min ([1]; Week 4): 68 mmHg | Systolic Blood Pressure Mean (SD) ([1]; Week 4): 9 122.2 (14.06) mmHg | Systolic Blood Pressure Q1 ([1]; Week 4): 113.7 mmHg | Systolic Blood Pressure Q2 ([1]; Week 4): 119.3 mmHg | Systolic Blood Pressure Q3 ([1]; Week 4): 126.7 mmHg | Systolic Blood Pressure max ([1]; Week 4): 146 mmHg | Systolic Blood Pressure min ([1]; Week 4): 102 mmHg | Diastolic Blood Pressure Mean (SD) ([1]; Week 8): 9 77.1 (6.07) mmHg | Diastolic Blood Pressure Q1 ([1]; Week 8): 72.3 mmHg | Diastolic Blood Pressure Q2 ([1]; Week 8): 78.7 mmHg | Diastolic Blood Pressure Q3 ([1]; Week 8): 81.7 mmHg | Diastolic Blood Pressure max ([1]; Week 8): 84 mmHg | Diastolic Blood Pressure min ([1]; Week 8): 68 mmHg | Systolic Blood Pressure Mean (SD) ([1]; Week 8): 9 117.0 (11.50) mmHg | Systolic Blood Pressure Q1 ([1]; Week 8): 111.0 mmHg | Systolic Blood Pressure Q2 ([1]; Week 8): 115.3 mmHg | Systolic Blood Pressure Q3 ([1]; Week 8): 124.3 mmHg | Systolic Blood Pressure max ([1]; Week 8): 135 mmHg | Systolic Blood Pressure min ([1]; Week 8): 95 mmHg | Diastolic Blood Pressure Mean (SD) ([1]; Week 12 (end of treatment)): 9 78.4 (10.70) mmHg | Diastolic Blood Pressure Q1 ([1]; Week 12 (end of treatment)): 78.3 mmHg | Diastolic Blood Pressure Q2 ([1]; Week 12 (end of treatment)): 81.3 mmHg | Diastolic Blood Pressure Q3 ([1]; Week 12 (end of treatment)): 85.7 mmHg | Diastolic Blood Pressure max ([1]; Week 12 (end of treatment)): 87 mmHg | Diastolic Blood Pressure min ([1]; Week 12 (end of treatment)): 54 mmHg | Systolic Blood Pressure Mean (SD) ([1]; Week 12 (end of treatment)): 9 117.8 (14.06) mmHg | Systolic Blood Pressure Q1 ([1]; Week 12 (end of treatment)): 111.0 mmHg | Systolic Blood Pressure Q2 ([1]; Week 12 (end of treatment)): 120.0 mmHg | Systolic Blood Pressure Q3 ([1]; Week 12 (end of treatment)): 125.7 mmHg | Systolic Blood Pressure max ([1]; Week 12 (end of treatment)): 135 mmHg | Systolic Blood Pressure min ([1]; Week 12 (end of treatment)): 88 mmHg | Change in DBP from baseline to 12 weeks Mean (SD) ([1]; Week 12 v/s Baseline): 9 −4.3 (8.95) mmHg | Change in DBP from baseline to 12 weeks Q1 ([1]; Week 12 v/s Baseline): −8.7 mmHg | Change in DBP from baseline to 12 weeks Q2 ([1]; Week 12 v/s Baseline): −3.7 mmHg | Change in DBP from baseline to 12 weeks Q3 ([1]; Week 12 v/s Baseline): −0.7 mmHg | Change in DBP from baseline to 12 weeks max ([1]; Week 12 v/s Baseline): 9 mmHg | Change in DBP from baseline to 12 weeks min ([1]; Week 12 v/s Baseline): −22 mmHg | Change in SBP from baseline to 12 weeks Mean (SD) ([1]; Week 12 v/s Baseline): 9 −6.4 (8.24) mmHg | Change in SBP from baseline to 12 weeks Q1 ([1]; Week 12 v/s Baseline): −12.0 mmHg | Change in SBP from baseline to 12 weeks Q2 ([1]; Week 12 v/s Baseline): −4.7 mmHg | Change in SBP from baseline to 12 weeks Q3 ([1]; Week 12 v/s Baseline): 0.3 mmHg | Change in SBP from baseline to 12 weeks max ([1]; Week 12 v/s Baseline): 5 mmHg | Change in SBP from baseline to 12 weeks min ([1]; Week 12 v/s Baseline): −19 mmHg | Diastolic Blood Pressure Mean (SD) [1, 3]: 9 80.5 (7.29) mmHg | Diastolic Blood Pressure Q1 [1, 3]: 74.3 mmHg | Diastolic Blood Pressure Q2 [1, 3]: 80.7 mmHg | Diastolic Blood Pressure Q3 [1, 3]: 87.0 mmHg | Diastolic Blood Pressure max [1, 3]: 90 mmHg | Diastolic Blood Pressure min [1, 3]: 71 mmHg | Systolic Blood Pressure Mean (SD) [1, 3]: 9 118.3 (10.11) mmHg | Systolic Blood Pressure Q1 [1, 3]: 109.7 mmHg | Systolic Blood Pressure Q2 [1, 3]: 116.7 mmHg | Systolic Blood Pressure Q3 [1, 3]: 123.0 mmHg | Systolic Blood Pressure max [1, 3]: 136 mmHg | Systolic Blood Pressure min [1, 3]: 107 mmHg | Change in LDL from baseline to 12 weeks Mean (SD) (LDL): 9 −1.0 (0.38) mmol/l | Change in LDL from baseline to 12 weeks Q1 (LDL): -1.2 mmol/L | Change in LDL from baseline to 12 weeks Q2 (LDL): -1.0 mmol/L | Change in LDL from baseline to 12 weeks Q3 (LDL): -0.8 mmol/L | Change in LDL from baseline to 12 weeks max (LDL): -1 mmol/L | Change in LDL from baseline to 12 weeks min (LDL): -2 mmol/L

Reference: patent publication US12661345B2, “Compositions for the treatment of hypertension” (The George Institute for Global Health, priority 2017, dated 2026)
